Where “and” joins values, the source holds several entries; their conditions need not be identical. Identical values can stand only once.
How the values were obtained:
local blood flow = test: Laser Doppler flowmeter measurement of blood cell flux after topical application; format: in vivo; conditions: for No. measurable responses: of ten subjects; for Time to response Initial / Time to response Peak / Time to response Return to zero: ± S.D.
Description: The blood cell flux is then given by the product of the number of red blood cells found to be moving in the irradiated volume of skin and adjacent tissue and the mean red blood cell velocity. The results expressed by the flowmeter indicate the relative change of the blood cell flux over control conditions, i.e. before application of the composition. […] The figures for "area" given in the third column are obtained by graphical integration of a graph of blood cell flux against time obtained using the laser Doppler flowmeter. Any figure in this column greater than about 20 may be regarded as indicative of a useful improvement in local blood flow in the treated area. […] Thus the compositions in accordance with the invention make it possible to obtain a useful increase in local blood flow without appreciable erythema. The compositions of the present invention are thus useful in preventing pressure sores where is it desired to stimulate local blood flow without obvious erythema.

skin = test: Erythema score after topical application; format: in vivo
Description: Using an erythema scale of 0 to 3, an erythema value of up to 0.5 (which is barely detectable) is considered acceptable. The figures for "area" given in the third column are obtained by graphical integration of a graph of blood cell flux against time obtained using the laser Doppler flowmeter. Any figure in this column greater than about 20 may be regarded as indicative of a useful improvement in local blood flow in the treated area. […] Thus the compositions in accordance with the invention make it possible to obtain a useful increase in local blood flow without appreciable erythema. The compositions of the present invention are thus useful in preventing pressure sores where is it desired to stimulate local blood flow without obvious erythema.

With `CCCCCCOC(=O)c1cccnc1` [hexyl nicotinate, Hexyl nicotinate] the Area (local blood flow; 0.025 % hexyl nicotinate lotion, site arms, single subjects, area under curve of blood cell flux against time, adjusted to a sensitivity of 1) was 0 cm^2 (4×) and 124.05 cm^2, the Area (local blood flow; 0.025 % hexyl nicotinate lotion, site buttocks, single subjects, area under curve of blood cell flux against time) was 5.00 cm^2 and 0 cm^2 (3×) and 51.59 cm^2 and the Area (local blood flow; 0.05 % hexyl nicotinate lotion (Example l), site arms, single subjects, area under curve of blood cell flux against time) was 32.17 cm^2 and 0 cm^2 and 89.59 cm^2 and 80.90 cm^2 and 126.32 cm^2. For the same molecule, the Area (local blood flow; 0.05 % hexyl nicotinate lotion (Example l), site buttocks, single subjects, area under curve of blood cell flux against time) was 91.86 cm^2 and 22.28 cm^2 and 4.29 cm^2 and 0 cm^2 and 64.73 cm^2, the Area (local blood flow; 0.10 % hexyl nicotinate lotion, site arms, single subjects, area under curve of blood cell flux against time) was 103.06 cm^2 and 0 cm^2 and 82.80 cm^2 and 152.26 cm^2 and 119.99 cm^2 and the Area (local blood flow; 0.10 % hexyl nicotinate lotion, site buttocks, single subjects, area under curve of blood cell flux against time) was 246.74 cm^2 and 119.97 cm^2 and 0 cm^2 and 5.24 cm^2 and 199.76 cm^2. The No. measurable responses (local blood flow; 0.025 % hexyl nicotinate) was 2, the No. measurable responses (local blood flow; 0.05 % hexyl nicotinate) was 8 and the No. measurable responses (local blood flow; 0.10 % hexyl nicotinate) was 8. For the same molecule, the Area (local blood flow; summary of ten subjects, 0.025 % hexyl nicotinate) was 18.05 cm^2, the Area (local blood flow; summary of ten subjects, 0.05 % hexyl nicotinate) was 51.21 cm^2 and the Area (local blood flow; summary of ten subjects, 0.10 % hexyl nicotinate) was 102.98 cm^2. For the same molecule, the “Time to response Initial” value (local blood flow; 0.025 % hexyl nicotinate) was 5.5 ± 0.7 min, the “Time to response Peak” value (local blood flow; 0.025 % hexyl nicotinate) was 22.5 ± 6.4 min and the “Time to response Return to zero” value (local blood flow; 0.025 % hexyl nicotinate) was 78.5 ± 16.3 min. For the same molecule, the “Time to response Initial” value (local blood flow; 0.05 % hexyl nicotinate) was 10.6 ± 5.0 min, the “Time to response Peak” value (local blood flow; 0.05 % hexyl nicotinate) was 27.9 ± 12.3 min and the “Time to response Return to zero” value (local blood flow; 0.05 % hexyl nicotinate) was 75.8 ± 19.2 min. For the same molecule, the “Time to response Initial” value (local blood flow; 0.10 % hexyl nicotinate) was 7.8 ± 2.3 min, the “Time to response Peak” value (local blood flow; 0.10 % hexyl nicotinate) was 20.8 ± 6.4 min and the “Time to response Return to zero” value (local blood flow; 0.10 % hexyl nicotinate) was 83.3 ± 17.7 min. For the same molecule, the Erythema (skin; 0.025 % hexyl nicotinate lotion, site arms, single subjects, score 0-3 (0=No erythema, 3=severe erythema)) was 0 (4×) and 0.5, the Erythema (skin; 0.025 % hexyl nicotinate lotion, site buttocks, single subjects, score 0-3) was 0 (4×) and 1 and the Erythema (skin; 0.05 % hexyl nicotinate lotion (Example l), site arms, single subjects, score 0-3) was 0 (2×) and 0.5 (2×) and 1. The Erythema (skin; 0.05 % hexyl nicotinate lotion (Example l), site buttocks, single subjects, score 0-3) was 1 (2×) and 0.5 and 0 (2×), the Erythema (skin; 0.10 % hexyl nicotinate lotion, site arms, single subjects, score 0-3) was 2 (3×) and 0 and 1 and the Erythema (skin; 0.10 % hexyl nicotinate lotion, site buttocks, single subjects, score 0-3) was 2 and 1 and 0.5 (2×) and 3. The Erythema (skin; concentrations in the range 0.l to 0.2% by weight of the composition, patients) was “cause erytheme in a significant proportion of patients”, the Erythema (skin; summary of ten subjects, 0.025 % hexyl nicotinate, score 0-3) was 0.15 and the Erythema (skin; summary of ten subjects, 0.05 % hexyl nicotinate, score 0-3) was 0.45. It also gave an Erythema (skin; summary of ten subjects, 0.10 % hexyl nicotinate, score 0-3) of 1.40.

Source: patent publication EP0220825A2, “Pharmaceutical composition for topical application” (DIOMED DEVELOPMENTS LIMITED, priority 1985, dated 1987)
